Each block holds one compound with its values, some of them ahead of it.
Legend:
[1] = target: T1, ETB cysteinyl thiols (region containing Cys405) (Homo sapiens, UniProt P24530); assay: Western analysis to detect ETB disulfide bond formation in HPAECs; assay type: cell-based; conditions: aldosterone 10^−7 mol/L 24 h or H2O2 200 μmol/L 20 min
T1 construct: endogenous in cells; host or cells: HPAECs (Lonza)
T1 sequence (P24530 27-442): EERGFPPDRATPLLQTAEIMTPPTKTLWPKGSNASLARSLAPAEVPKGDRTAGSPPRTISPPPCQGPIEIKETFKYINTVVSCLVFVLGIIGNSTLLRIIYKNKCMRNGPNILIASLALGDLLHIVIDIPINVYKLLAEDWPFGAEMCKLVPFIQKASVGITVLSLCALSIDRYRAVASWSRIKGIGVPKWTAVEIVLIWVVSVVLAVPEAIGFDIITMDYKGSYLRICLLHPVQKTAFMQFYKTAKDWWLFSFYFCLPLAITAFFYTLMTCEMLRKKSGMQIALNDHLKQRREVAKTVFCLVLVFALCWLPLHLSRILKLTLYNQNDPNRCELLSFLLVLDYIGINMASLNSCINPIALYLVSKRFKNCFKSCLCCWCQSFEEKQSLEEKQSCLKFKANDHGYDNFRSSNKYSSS
Description: Western analysis to detect ETB disfulfide bond formation. Western analysis to detect ETB disulfide bond formation was performed as described previously.^7 Briefly, protein extracts from cells were lysed in alkylating buffer containing 0.1 M Tris-HCL, pH 6.8, 1% SDS, 100 mM iodoacetamide, and 100 mM N-ethylmaleimide, and sonicated on ice for 5 min followed by a 30-min incubation at 25° C. Alkylated proteins were then precipitated with acetone. Proteins were resuspended in 50 μl of 0.1 M Tris-HCl, pH 7.4, 1% SDS; and disulfides were reduced with 5 mM tris(2-carboxyethyl)phosphine hydrochloride (TCEP). Following a 20-min incubation at 25° C., TCEP was removed with a Micro Bio-Spin™ column 6 (Bio-Rad), and 1% SDS was added to the eluant. The cysteines previously participating in a disulfide bond, now reduced, were labeled with 1 mM polyethylene glycol-conjugated maleimide (molecular mass 10 kDa) (Fluka). After a 1-h incubation at 25° C., proteins were precipitated with acetone, resuspended in 50 μl of non-reducing SDS electrophoresis buffer, and boiled for 10 min. Protein samples were then size-fractionated electrophoretically using SDS-PAGE, and transferred to a polyvinylidene fluoride membrane. […]

[2] = test system: Sprague-Dawley rats; assay: Monocrotaline (MCT) induction of PAH versus vehicle control; assay type: in vivo, rat
Description: (§1) Animal model of PAH. Male Sprague-Dawley rats (age 12-14 weeks; Charles River Laboratories) were handled in accordance with US National Institutes of Health guidelines, and all procedures were approved by the local committee at Brigham and Women's Hospital, Harvard Medical School. All surgeries were performed under ketamine/xylazine anesthesia. For the monocrotaline (MCT) model of PAH, rats were fed standard chow and treated with a 0.5 ml intraperitoneal injection of MCT (50 mg/ml) (Sigma-Aldrich) or 0.9% saline as control. Rats were randomized to spironolactone (25 mg/kg/d) (Henry Schein) or vehicle added to the drinking water. For the prevention study, treatment with spironolactone began immediately following administration of MCT and continued for 23-25 days until hemodynamic and tissue analyses were performed. For the reversal study, a second experiment was performed in which rats were randomized to spironolactone or vehicle that was initiated 14 days following the administration of MCT and continued until hemodynamic and tissue analyses were performed 10 days later.
(§2) Aldosterone and ET-1 levels. […] In selected experiments, cells were pre-treated for 6 h with BQ-788 (1.5 μM) (Sigma-Aldrich) to inhibit the ETB receptor. Aldosterone levels were measured in the medium of cells grown in phenol-free EGM-2 medium supplemented with charcoal-stripped serum, by enzyme immunoassay according to the manufacturer's instructions (Cayman). Results were standardized to cell protein concentration. Levels of aldosterone and ET-1 from plasma and whole lung tissue were measured by enzyme immunoassay according to the manufacturer's instructions (Cayman).
Echocardiography. Transthoracic two-dimensional, M-mode, and Doppler imaging were performed in rats using a Vevo 2010 ultrasonographic system with a 15-MHz transducer. M-mode and Doppler tracings were acquired at a sweep speed of 200 mm/s following optimization of endocardial visualization and spectral display of Doppler profiles as described previously.^3 M-mode measurements of the right ventricular free-wall thickness were measured in the parasternal short-axis view just below the levels of the aortic valve, as described previously and in accordance to recommendations on M-mode measurement of the RV by the American Society of Echocardiography.^4 All studies were performed by a cardiologist and experienced sonographer who was blinded to the treatment group and was responsible for image analysis.
(§3) Right heart catheterization. An incision was made in the anterior triangle of the right neck, and a dissection was performed to expose the right internal jugular vein. A 0.04×0.023 in.-sized polyvinylchloridine catheter with a curved end was flushed with heparinized saline and connected to a Grass pressure transducer and Grass model 79 polygraph. A 4.0-proline suture was used to achieve hemostasis at the distal end of the jugular vein prior to insertion of the catheter. The tube was advanced and RV systolic pressure was recorded, which was assumed to be equal to PASP in the setting of a normal pulmonic valve.^3 All right heart catheterizations were performed within 10 min of echocardiography and both procedures were completed within 30 min.

[3] = test system: rats with SU-5416/hypoxia-induced PAH; assay: SU-5416/hypoxia-induced PAH, prevention study with eplerenone; assay type: in vivo, rat; conditions: 21 days
Description: (§4) Sections were stained with a Gomori's Trichrome Staining Kit according to the manufacturer's instruction (Fischer Scientific). Image J™ software (NIH) was used to measure the per cent perivascular collagen deposition of muscularized arterioles with a diameter of 20-50 μm by subtracting the area of the lesser curvature from the greater curvature and dividing by the lesser curvature×100. Collagen was also assessed in tissue sections using Picrosirius Red Stain Kit according to the manufacturer's instruction (Polysciences). Lung sections were visualized under polarized light using an Olympus BX51™ microscope and images were acquired by the Picture Taker™ software package.
as §3
(§5) Left heart catheterization and hemodynamics. Following completion of the right heart catheterization, a deep neck dissection was performed to identify the right carotid artery. Without disrupting the carotid sinus or vagus nerve, a cross-clamp was applied to the proximal and distal aspects of the carotid artery. A high fidelity Millar catheter (Millar Instruments, Inc.) was inserted into the carotid artery, the distal clamp was released, and the catheter was advanced past the aortic arch to record central aortic blood pressure. The catheter was then advanced across the aortic valve and left ventricular end-diastolic pressure (LVEDP) were recorded. Cardiac index (CI) was derived from pressure-volume loop analysis as described previously.^5 The pulmonary vascular resistance index was calculated as [(mean pulmonary artery pressure-LVEDP)/CI)] and systemic vascular resistance index was calculated as [(mean arterial pressure-mean right atrial pressure)/CI].

[4] = test system: HPAECs; assay: Aldosterone levels in HPAEC culture medium by enzyme immunoassay; assay type: cell-based, human; conditions: pioglitazone 50 μM, 24 h
[5] = test system: Sprague-Dawley rats with MCT-induced PAH; assay: MCT model of PAH, prevention study (spironolactone started at time of MCT injection); assay type: in vivo, rat
Description: as §1, §2
NO. metabolites. Nitrite (NO2^−) and nitrate (NO3^−) were measured in cell culture medium containing 2% fetal bovine serum and L-arginine (1 mmol/l) (Sigma-Aldrich) by 1(H)-naphthotriazole fluorescence (Cayman) as previously reported.^1 To measure NO2^− levels in whole lung tissue, lung specimens were harvested from rats and snap frozen in liquid nitrogen. Samples were thawed, homogenized in PBS (pH 7.4), and centrifuged at 14,000×g at 4° C. for 20 min. The supernatant was ultrafiltered using a 30 kDa molecular weight filter (Millpore), and the eluant was used to measure NO2^− levels according to manufacturer's instructions (Cayman).
Lung tissue histology. Rat lung vessels were perfused with saline through the pulmonary artery and inflated with 10% phosphate-buffered formalin at a pressure of 20 cm H2O through the trachea as described previously.^2 After fixation for 24 h at 4° C., the lung tissue was processed and embedded in paraffin using a Hypercenter™ XP System and Embedding Center (Shandon, Pittsburg, Pa.). The paraffin-embedded lung tissue was cut into 5-μm sections. Hematoxylin and eosin staining was performed according to methods published previously.^3 The 3,3′-diaminobenzidine substrate method was used for smooth muscle α-actin immunohistochemical staining. The number of muscularized arteries with a diameter of 20-50 μm located distal to terminal bronchioles were counted in 20 consecutive fields (100×) per section,^2 and the cross-sectional area was assessed using Image J™ software (NIH).
as §4
Echocardiography. […]

[6] = test system: Sprague-Dawley rats with MCT-induced PAH; assay: MCT model of PAH, reversal study (spironolactone started 14 days after MCT); assay type: in vivo, rat
Description: as §1, §4, §3, §5

[7] = test system: HPAECs; assay: Amplex Red assay of hydrogen peroxide levels in HPAECs; assay type: cell-based, human; conditions: aldosterone-treated HPAECs coincubated with spironolactone (10 μM), 24 h; n=3
Description: Human pulmonary artery endothelial cells (HPAECs) (Lonza) (male donors) were grown to confluence using phenol-free EGM-2 medium supplemented with 5% fetal bovine serum at 37° C., 5% CO2. Cells were passaged twice-weekly using 0.5% trypsin/EDTA, and experiments were performed on cells from passages 4-10. Aldosterone (Steraloids) and ET-1 (1-100 nM) (Sigma-Aldrich) were dissolved in dimethylsufloxide (10 nmol/L) and deoxygenated water, respectively, which served as vehicle controls. Cells were treated with aldosterone (10^−−10^−7 mol/L) for 24 h and in selected experiments co-incubated with the mineralocorticoid receptor inhibitor spironolactone (10 μM/l) (Sigma-Aldrich).

[8] = test system: ETB-dependent NO. generation in HPAECs; assay: NO. metabolites (NO2−, NO3−) in ET-1-stimulated HPAECs; assay type: cell-based, human
Description: Cell culture and treatments. Human pulmonary artery endothelial cells (HPAECs) (Lonza) (male donors) were grown to confluence using phenol-free EGM-2 medium supplemented with 5% fetal bovine serum at 37° C., 5% CO2. Cells were passaged twice-weekly using 0.5% trypsin/EDTA, and experiments were performed on cells from passages 4-10. Aldosterone (Steraloids) and ET-1 (1-100 nM) (Sigma-Aldrich) were dissolved in dimethylsufloxide (10 nmol/L) and deoxygenated water, respectively, which served as vehicle controls. Cells were treated with aldosterone (10^−−10^−7 mol/L) for 24 h and in selected experiments co-incubated with the mineralocorticoid receptor inhibitor spironolactone (10 μM/l) (Sigma-Aldrich).

[9] = rats with MCT-induced PAH vs vehicle
[10] = rats with MCT-induced PAH vs vehicle, 25 days
[11] = spironolactone 25 mg/kg/d in MCT-PAH rats
[12] = spironolactone 25 mg/kg/d from day 14

SMILES: OO [H2O2, hydrogen peroxide]
- ETB disulfide bond formation (bands at 70 kDa and 90 kDa) [1]: de novo formation of one or two disulfide bonds

SMILES: C[C@H]1C(=O)O[C@@H]2CCN3CC=C(COC(=O)[C@](C)(O)[C@]1(C)O)[C@H]23 [MCT, monocrotaline]
- increase in plasma ET-1 levels ([2]; MCT rat model of PAH): 3 fold
- right ventricular (RV) free-wall thickness ([2]; MCT-treated rats vs vehicle control 0.58±0.05, n=6): 1.1±0.05 mm
- pulmonary artery systolic pressure (PASP) ([2]; MCT-treated rats vs vehicle control 28.3±2.7, right heart catheterization, n=6): 89.3±5.3 mm Hg
- pulmonary artery (PA) flow acceleration time (PAAT) ([2]; MCT-treated rats vs vehicle control 35.4±2.6, echocardiography, n=6): 14.1 ± 1.2 ms
- increase in aldosterone levels in lung tissue [2, 9]: 172%
- increase in aldosterone levels in plasma [2, 9]: 406%
- increase in ET-1 levels in lung homogenates [2, 10]: 174%
- increase in ET-1 levels in plasma [2, 10]: 286%

- CI ([3]; eplerenone in chow): without significantly influencing
- LVEDP ([3]; eplerenone in chow): without significantly influencing
- MAP ([3]; eplerenone in chow): without significantly influencing
- SVRi ([3]; eplerenone in chow): without significantly influencing
SMILES: COC(=O)[C@@H]1CC2=CC(=O)CC[C@]2(C)[C@@]23O[C@@H]2C[C@@]2(C)[C@@H](CC[C@@]24CCC(=O)O4)[C@H]13 [eplerenone]
- decrease in perivascular collagen ([3]; eplerenone 0.6 mg/1 gm standard chow, n=5): 67%
- body weight ([3]; eplerenone in chow): without significantly influencing
- heart rate ([3]; eplerenone in chow): without significantly influencing
- PVRi ([3]; eplerenone in chow, vs SU-5416/hypoxia 64.6±21.4, p=0.18, n=3-4): 43.9±8.7 mm Hg*min*gm/ml
- PASP ([3]; eplerenone in chow, vs SU-5416/hypoxia 80.5±4.9, p=0.048, n=5): 61.5±6.5 mm Hg

SMILES: CCc1ccc(CCOc2ccc(CC3SC(=O)NC3=O)cc2)nc1 (stereo not drawn) [pioglitazone]
- increase in aldosterone levels compared to V [4]: 365%

- LVEDP [6, 12]: without changes
- MAP [6, 12]: without changes
- cardiac index (CI) [6, 12]: without changes
- indexed systemic vascular resistance (SVRi) [6, 12]: without changes
SMILES: CC(=O)S[C@@H]1CC2=CC(=O)CC[C@]2(C)[C@H]2CC[C@@]3(C)[C@@H](CC[C@@]34CCC(=O)O4)[C@H]12 [spironolactone]
- body weight [5, 11]: without significantly decreasing plasma ET-1 levels or influencing
- left ventricular end-diastolic pressure (LVEDP) [5, 11]: without significantly decreasing plasma ET-1 levels or influencing
- mean arterial pressure (MAP) [5, 11]: without significantly decreasing plasma ET-1 levels or influencing
- plasma ET-1 levels [5, 11]: without significantly decreasing
- PASP ([5]; spironolactone 25 mg/kg/d in drinking water, 23-25 days, vs V-treated PAH 89.3±5.2, n=6): 69.5±5.4 mm Hg
- decrease in perivascular collagen deposition (Gomori's trichrome) ([5]; spironolactone 25 mg/kg/d vs V-treated rats with PAH, n=4): 77%
- RV weight ([5]; spironolactone 25 mg/kg/d, vs V-treated PAH 0.43±0.07, p=0.32, n=5): 0.35±0.04 RV weight/LV septum weight
- RV free-wall thickness ([5]; spironolactone 25 mg/kg/d, vs V-treated PAH 1.07±0.05, n=6): 0.86±0.03 mm
- PAAT ([5]; spironolactone 25 mg/kg/d, vs V-treated PAH 14.1±1.2, n=6): 22.3 ± 2.2 ms
- cross-sectional luminal area of vessels ([5]; spironolactone 25 mg/kg/d, vs V-treated PAH 14.3±0.7, n=5): 35.4±1.9 % cross sectional area
- number of α-actin-stained muscularized distal pulmonary arterioles ([5]; spironolactone 25 mg/kg/d, vs V-treated PAH 77.7±6.3, n=5): 59.7±0.4 muscularized pulmonary arterioles/20 high powered fields
- nitrite (NO2^−) in lung tissue specimens ([5]; spironolactone 25 mg/kg/d, vs V-treated PAH 506±86, n=4): 759±55 μM/μg protein
- heart rate [6, 12]: without changes
- indexed pulmonary vascular resistance (PVRi) ([6]; spironolactone 25 mg/kg/d from day 14, vs V-treated PAH 35.9±3.2, n=4): 21.5±3.2 mm Hg*min*g/ml
- PASP ([6]; spironolactone 25 mg/kg/d from day 14, vs V-treated PAH 60.3±5.2, n=6): 39.5±4.1 mm Hg
- decrease in levels of perivascular collagen ([6]; spironolactone 25 mg/kg/d from day 14 for 10 days vs V-treated PAH, n=6): 71%
- abrogation of aldosterone-induced H2O2 accumulation [7]: 56%
- NO2^− levels in aldosterone-treated, ET-1-stimulated cells ([8]; coincubation with spironolactone 10 μM, HPAECs): restored
- increase in NOx levels ([8]; spironolactone coincubation in aldosterone-treated cells stimulated with ET-1, n=3): 87%

Source: patent publication US9605047B2, “Compositions and methods for treating hypertension” (The Brigham and Women's Hospital, Inc., priority 2012, dated 2017)
